# Experimental data published in patent US20050059585A1, “Methionine aminopeptidase-2 inhibitors and methods of use thereof” (Praecis Pharmaceuticals Inc., priority 2000, published 2005).
# Tests used:
# Experiment in all cases: tumor cell line panel, SRB growth assay
# Format in all cases: cell-based
# UACC-62 = conditions: Homo sapiens; UACC-62, Melanoma, 48 hours
# Experimental: (§1) The compound of example 5 was also evaluated against a panel of cancer cell lines (Alley, M.C. et al. […] Cancer Research 48: 589-601; Grever, M. R., et al. (1992) Seminars in Oncology, Vol. 19, No. 6, pp 622-638; Boyd, M. R., and Paull, K. D. (1995) Drug Development Research 34: 91-109). The human tumor cell lines of the cancer screening panel were grown in RPMI 1640 medium containing 5% fetal bovine serum and 2 mM L-glutamine. Cells were inoculated into 96 well microtiter plates in 100 μL at plating densities ranging from 5,000 to 40,000 cells/well depending on the doubling time of individual cell lines. After cell inoculation, the microtiter plates were incubated at 37° C., 5 % CO2, 95 % air and 100 % relative humidity for 24 hours prior to addition of experimental drugs.
# (§2) After the 24 hour incubation period, two plates of each cell line were fixed in situ with TCA, to represent a measurement of the cell population for each cell line at the time of drug addition (Tz). Experimental drugs were solubilized in dimethyl sulfoxide at 400-fold the desired final maximum test concentration and stored frozen prior to use. At the time of drug addition, an aliquot of frozen concentrate was thawed and diluted to twice the desired final maximum test concentration with complete medium containing 50 μg/ml gentamicin. Additional four, 10-fold or ½ log serial dilutions were made to provide a total of five drug concentrations plus control. Aliquots of 100 μl of these different drug dilutions were added to the appropriate microtiter wells already containing 100 μl of medium, resulting in the required final drug concentrations.
# (§3) Following drug addition, the plates were incubated for an additional 48 hours at 37° C., 5 % CO2, 95 % air, and 100 % relative humidity. For adherent cells, the assay was terminated by the addition of cold TCA. Cells were fixed in situ by the gentle addition of 50 μl of cold 50 % (w/v) TCA (final concentration, 10% TCA) and incubated for 60 minutes at 4° C. The supernatant was discarded, and the plates were washed five times with tap water and air dried. Sulforhodamine B (SRB) solution (100 μl) at 0.4 % (w/v) in 1 % acetic acid were added to each well, and plates were incubated for 10 minutes at room temperature. After staining, unbound dye was removed by washing five times with 1 % acetic acid and the plates were air dried. Bound stain was subsequently solubilized with 10 mM trizma base, and the absorbance was read on an automated plate reader at a wavelength of 515 nm. For suspension of the cells, the methodology used was the same except that the assay was terminated by fixing settled cells at the bottom of the wells by gently adding 50 μl of 80 % TCA (final concentration, 16% TCA). Using the seven absorbance measurements [time zero, (Tz), control growth, (C), and test growth in the presence of drug at the five concentration levels (Ti)], the percentage growth was calculated at each of the drug concentrations levels.
# (§4) Percentage growth inhibition was calculated as: [(Ti−Tz)/(C−Tz)]×100 for concentrations for which Ti>/=Tz [(Ti−Tz)/Tz]×100 for concentrations for which Ti<Tz.
# (§5) Growth inhibition of 50% (GI50) was calculated from [(Ti−Tz)/(C−Tz)]×100=50, which is the drug concentration resulting in a 50% reduction in the net protein increase (as measured by SRB staining) in control cells during the drug incubation. The G150 was calculated for each of the cell lines if the level of activity is reached; however, if the effect was not reached or is exceeded, the value for that parameter is expressed as greater or less than the maximum (10^−4 M) or minimum (10^−8 M) concentration tested.
# UACC-257 = conditions: Homo sapiens; UACC-257, Melanoma, 48 hours
# Experimental: as §1, §2, §3, §4, §5
# HCT-15 = conditions: Homo sapiens; HCT-15, Colon, 48 hours
# Experimental: as §1, §2, §3, §4, §5
# NCI-H226 = conditions: Homo sapiens; NCI-H226, Non-Small Cell Lung, 48 hours
# Experimental: as §1, §2, §3, §4, §5
# SNB-75 = conditions: Homo sapiens; SNB-75, CNS, 48 hours
# Experimental: as §1, §2, §3, §4, §5
# ACHN = conditions: Homo sapiens, Renal, 48 hours
# Experimental: as §1, §2, §3, §4, §5
# HCT-116 = conditions: Homo sapiens; HCT-116, Colon, 48 hours
# Experimental: as §1, §2, §3, §4, §5
# SN12C = conditions: Homo sapiens, Renal, 48 hours
# Experimental: as §1, §2, §3, §4, §5
# TK-10 = conditions: Homo sapiens; TK-10, Renal, 48 hours
# Experimental: as §1, §2, §3, §4, §5
# NCI/ADR-RES = conditions: Homo sapiens, Breast, 48 hours
# Experimental: as §1, §2, §3, §4, §5
# SF-295 = conditions: Homo sapiens; SF-295, CNS, 48 hours
# Experimental: as §1, §2, §3, §4, §5
# HS 578T = conditions: Homo sapiens, Breast, 48 hours
# Experimental: as §1, §2, §3, §4, §5
# HOP-92 = conditions: Homo sapiens; HOP-92, Non-Small Cell Lung, 48 hours
# Experimental: as §1, §2, §3, §4, §5
# OVCAR-4 = conditions: Homo sapiens; OVCAR-4, Ovarian, 48 hours
# Experimental: as §1, §2, §3, §4, §5
# MALME-3M = conditions: Homo sapiens, Melanoma, 48 hours
# Experimental: as §1, §2, §3, §4, §5
# NCI-H460 = conditions: Homo sapiens; NCI-H460, Non-Small Cell Lung, 48 hours
# Experimental: as §1, §2, §3, §4, §5
# CAKI-1 = conditions: Homo sapiens; CAKI-1, Renal, 48 hours
# Experimental: as §1, §2, §3, §4, §5
# SK-MEL-5 = conditions: Homo sapiens; SK-MEL-5, Melanoma, 48 hours
# Experimental: as §1, §2, §3, §4, §5
# OVCAR-8 = conditions: Homo sapiens; OVCAR-8, Ovarian, 48 hours
# Experimental: as §1, §2, §3, §4, §5
# KM12 = conditions: Homo sapiens; KM12, Colon, 48 hours
# Experimental: as §1, §2, §3, §4, §5
# RPMI-8226 = conditions: Homo sapiens; RPMI-8226, Leukemia, 48 hours
# Experimental: as §1, §2, §3, §4, §5
smiles,measurement,setting,value
"CO[C@@H]1[C@H](OC(=O)N[C@@H](C(N)=O)C(C)C)CC[C@]2(CO2)[C@H]1[C@@]1(C)O[C@@H]1CC=C(C)C [Example 5, (1-Carbamoyl-2-methyl-propyl)-carbamic acid-(3R, 4S, 5S, 6R )-5-methoxy-4-[(2R, 3R)-2-methyl-3-(3-methyl-but-2-enyl)-oxiranyl]-1-oxa-spiro[2.5]oct-6-yl ester]",GI50,UACC-62,< 0.01 µM
same,GI50,UACC-257,1.48 µM
same,GI50,HCT-15,7.13 µM
same,GI50,NCI-H226,0.791 µM
same,GI50,SNB-75,90.9 µM
same,GI50,ACHN,< 0.01 µM
same,GI50,HCT-116,< 0.01 µM
same,GI50,SN12C,< 0.01 µM
same,GI50,TK-10,0.0543 µM
same,GI50,NCI/ADR-RES,34.2 µM
same,GI50,SF-295,< 0.01 µM
same,GI50,HS 578T,1.15 µM
same,GI50,HOP-92,33.9 µM
same,GI50,OVCAR-4,36.6 µM
same,GI50,MALME-3M,0.0531 µM
same,GI50,NCI-H460,< 0.01 µM
same,GI50,CAKI-1,< 0.01 µM
same,GI50,SK-MEL-5,> 100 µM
same,GI50,OVCAR-8,18.4 µM
same,GI50,KM12,< 0.01 µM
same,GI50,RPMI-8226,< 0.01 µM
